Data on seven molecules can be found in ChEMBL document CHEMBL5465560, “Selectivity Literature for EUbOPEN Chemogenomic Library” (2024).

The structures appear in SMILES notation.

For test [1], the target named is T1, Aurora kinase C (Homo sapiens) (UniProt Q9UQB9).
T1 sequence (whole entry): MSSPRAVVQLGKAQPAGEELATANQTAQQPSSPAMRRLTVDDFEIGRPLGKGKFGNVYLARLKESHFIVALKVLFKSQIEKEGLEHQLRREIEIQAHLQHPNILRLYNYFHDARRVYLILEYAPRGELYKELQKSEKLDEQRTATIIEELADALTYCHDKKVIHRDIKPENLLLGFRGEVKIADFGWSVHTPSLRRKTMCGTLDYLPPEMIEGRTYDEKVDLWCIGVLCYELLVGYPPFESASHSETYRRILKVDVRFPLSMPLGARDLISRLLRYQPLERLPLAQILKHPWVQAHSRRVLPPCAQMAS
Particulars: at 10 µM.

For test [2], the target named is Death-associated protein kinase 1 (Homo sapiens, UniProt P53355). The experiment in a line: Selectivity interaction (KinomeScan (DiscoverX)) EUB0000595a DAPK1. Particulars: at 10 µM.
Test [3] concerns the target Bone morphogenetic protein receptor type-1A (Homo sapiens, UniProt P36894). The experiment in a line: Selectivity interaction (KinomeScan (DiscoverX)) EUB0001619a BMPR1A. The conditions noted are these: at 1 µM.
For test [4], the target named is Serine/threonine-protein kinase OSR1 (Homo sapiens) (UniProt O95747). Description: Selectivity interaction (KinomeScan (DiscoverX)) EUB0000666a OXSR1. Particulars: at 10 µM.
The target in test [5] is Protein kinase C eta type (Homo sapiens) (UniProt P24723). The conditions noted are these: at 10 µM.
For test [6], the target named is MAP kinase-activated protein kinase 3 (Homo sapiens) (UniProt Q16644). Description: Selectivity interaction (ActivX KiNativ screen (kinase selectivity in THP-1 cell lysates)) EUB0000639a MAPKAPK3. The conditions noted are these: lysate. Type of test: subcellular.
For test [7], the target named is T2, Ephrin type-A receptor 3 (Homo sapiens) (UniProt P29320).
T2 sequence (whole entry): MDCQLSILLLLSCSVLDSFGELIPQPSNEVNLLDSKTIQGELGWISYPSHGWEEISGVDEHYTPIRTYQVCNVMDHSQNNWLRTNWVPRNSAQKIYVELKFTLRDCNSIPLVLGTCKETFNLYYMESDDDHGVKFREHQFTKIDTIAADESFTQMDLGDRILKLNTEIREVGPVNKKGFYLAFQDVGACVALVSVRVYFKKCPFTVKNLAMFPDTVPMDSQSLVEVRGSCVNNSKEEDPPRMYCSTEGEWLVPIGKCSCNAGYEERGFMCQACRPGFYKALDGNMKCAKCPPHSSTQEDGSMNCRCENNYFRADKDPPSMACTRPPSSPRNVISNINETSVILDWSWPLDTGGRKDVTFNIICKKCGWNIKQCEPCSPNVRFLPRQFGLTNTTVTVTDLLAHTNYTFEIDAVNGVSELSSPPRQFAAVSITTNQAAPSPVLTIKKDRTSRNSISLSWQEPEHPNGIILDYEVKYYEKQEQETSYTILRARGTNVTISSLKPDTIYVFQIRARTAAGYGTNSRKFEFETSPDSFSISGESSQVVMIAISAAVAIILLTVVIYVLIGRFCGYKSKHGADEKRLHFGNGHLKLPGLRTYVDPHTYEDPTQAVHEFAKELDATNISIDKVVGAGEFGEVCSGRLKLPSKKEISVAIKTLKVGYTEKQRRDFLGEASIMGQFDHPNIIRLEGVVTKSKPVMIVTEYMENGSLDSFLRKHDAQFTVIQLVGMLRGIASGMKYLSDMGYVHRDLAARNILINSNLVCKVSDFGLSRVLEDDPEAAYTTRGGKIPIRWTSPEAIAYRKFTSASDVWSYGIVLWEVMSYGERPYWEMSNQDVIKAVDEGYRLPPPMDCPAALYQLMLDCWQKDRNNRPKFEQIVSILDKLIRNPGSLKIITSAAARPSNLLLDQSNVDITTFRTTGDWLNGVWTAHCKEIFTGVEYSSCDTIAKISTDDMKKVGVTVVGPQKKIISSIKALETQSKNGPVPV
Description: Selectivity interaction (Kinase panel (Invitrogen)) EUB0000639a EPHA3. Particulars: at 200 nM.

Test [8] deals with Casein kinase II subunit alpha' (Homo sapiens) (UniProt P19784). The experiment in a line: Selectivity interaction (Ambit KINOMEscan and KiNATiv profiling in Jurkat cells) EUB0000090b CSNK2A2. Type of test: cell-based. Particulars: at 1 µM.
The target of test [9] is Serine/threonine-protein kinase 32A (Homo sapiens) (UniProt Q8WU08). The experiment in a line: Selectivity interaction (Ambit KINOMEscan and KiNATiv profiling in Jurkat cells) EUB0000090b STK32A. Type of test: cell-based. The conditions noted are these: at 1 µM.
The target of test [10] is T3, Mitogen-activated protein kinase 12 (Homo sapiens) (UniProt P53778).
T3 sequence (whole entry): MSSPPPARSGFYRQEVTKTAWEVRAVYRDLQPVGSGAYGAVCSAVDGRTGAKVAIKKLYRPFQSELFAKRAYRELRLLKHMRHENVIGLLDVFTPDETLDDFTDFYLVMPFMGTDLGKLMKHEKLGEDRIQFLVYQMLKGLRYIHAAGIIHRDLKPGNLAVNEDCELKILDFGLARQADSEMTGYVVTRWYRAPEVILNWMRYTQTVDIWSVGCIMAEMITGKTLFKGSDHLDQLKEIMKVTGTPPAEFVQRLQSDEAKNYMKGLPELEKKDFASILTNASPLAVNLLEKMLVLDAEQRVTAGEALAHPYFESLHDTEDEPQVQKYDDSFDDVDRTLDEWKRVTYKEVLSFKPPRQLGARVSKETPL
The experiment in a line: Selectivity interaction (Upstate Kinase Profiler service (Millipore)) EUB0000056c MAPK12. Particulars: at 1 µM.

Sequence of MAP kinase-activated protein kinase 3 (Homo sapiens) (Q16644 whole entry, looked up): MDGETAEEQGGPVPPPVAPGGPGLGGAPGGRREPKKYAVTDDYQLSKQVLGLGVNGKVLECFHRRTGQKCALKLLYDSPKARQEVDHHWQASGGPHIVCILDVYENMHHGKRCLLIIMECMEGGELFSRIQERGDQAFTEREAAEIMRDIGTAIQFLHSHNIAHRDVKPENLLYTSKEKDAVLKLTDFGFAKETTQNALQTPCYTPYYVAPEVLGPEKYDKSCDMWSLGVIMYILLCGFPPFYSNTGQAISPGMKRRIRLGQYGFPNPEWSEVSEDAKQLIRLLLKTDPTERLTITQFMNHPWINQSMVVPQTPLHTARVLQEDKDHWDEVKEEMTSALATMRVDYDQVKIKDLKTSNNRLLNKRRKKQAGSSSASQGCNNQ
Sequence of Bone morphogenetic protein receptor type-1A (P36894 whole entry): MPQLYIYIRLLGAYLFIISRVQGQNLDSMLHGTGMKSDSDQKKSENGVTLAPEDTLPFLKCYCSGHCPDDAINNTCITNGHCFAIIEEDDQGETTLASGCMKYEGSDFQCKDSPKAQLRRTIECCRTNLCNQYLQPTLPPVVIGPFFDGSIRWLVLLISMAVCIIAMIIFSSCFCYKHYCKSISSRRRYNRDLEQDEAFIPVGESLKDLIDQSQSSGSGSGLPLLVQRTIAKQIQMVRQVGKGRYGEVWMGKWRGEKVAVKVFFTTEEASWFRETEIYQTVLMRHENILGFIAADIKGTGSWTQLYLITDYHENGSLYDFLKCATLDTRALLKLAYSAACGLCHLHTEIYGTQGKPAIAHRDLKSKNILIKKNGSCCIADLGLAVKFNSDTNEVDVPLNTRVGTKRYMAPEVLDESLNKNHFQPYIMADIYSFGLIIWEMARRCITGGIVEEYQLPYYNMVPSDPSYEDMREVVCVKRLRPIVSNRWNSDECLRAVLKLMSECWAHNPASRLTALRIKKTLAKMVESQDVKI
Sequence of Serine/threonine-protein kinase OSR1 (Homo sapiens) (O95747 2-527 limits assumed): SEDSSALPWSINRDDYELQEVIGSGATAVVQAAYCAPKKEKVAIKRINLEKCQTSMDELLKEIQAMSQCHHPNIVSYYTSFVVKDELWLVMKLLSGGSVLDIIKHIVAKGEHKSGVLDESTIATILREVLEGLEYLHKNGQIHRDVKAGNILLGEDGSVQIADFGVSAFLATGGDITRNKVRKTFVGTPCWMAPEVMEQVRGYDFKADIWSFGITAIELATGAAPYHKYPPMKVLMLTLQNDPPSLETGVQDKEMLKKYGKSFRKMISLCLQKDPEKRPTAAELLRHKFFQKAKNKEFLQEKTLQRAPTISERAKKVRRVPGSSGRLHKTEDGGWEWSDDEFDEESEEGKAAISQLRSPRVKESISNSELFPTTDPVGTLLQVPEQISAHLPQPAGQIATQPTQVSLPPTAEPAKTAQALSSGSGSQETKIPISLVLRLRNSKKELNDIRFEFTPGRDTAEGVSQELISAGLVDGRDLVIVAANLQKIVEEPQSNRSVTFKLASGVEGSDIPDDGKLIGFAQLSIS
Sequence of Serine/threonine-protein kinase 32A (Homo sapiens) (Q8WU08 whole entry): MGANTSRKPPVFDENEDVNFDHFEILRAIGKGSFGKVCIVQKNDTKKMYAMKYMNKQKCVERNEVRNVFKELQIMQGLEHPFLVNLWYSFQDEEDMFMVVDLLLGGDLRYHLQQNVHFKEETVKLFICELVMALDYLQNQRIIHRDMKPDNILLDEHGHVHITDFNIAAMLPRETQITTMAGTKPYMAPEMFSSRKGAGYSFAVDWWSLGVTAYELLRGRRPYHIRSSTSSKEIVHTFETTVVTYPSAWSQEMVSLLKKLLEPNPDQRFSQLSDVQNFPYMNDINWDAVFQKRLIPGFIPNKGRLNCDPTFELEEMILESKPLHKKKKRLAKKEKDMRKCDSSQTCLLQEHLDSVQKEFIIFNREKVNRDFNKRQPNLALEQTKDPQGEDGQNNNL
Sequence of Death-associated protein kinase 1 (P53355 whole entry, looked up): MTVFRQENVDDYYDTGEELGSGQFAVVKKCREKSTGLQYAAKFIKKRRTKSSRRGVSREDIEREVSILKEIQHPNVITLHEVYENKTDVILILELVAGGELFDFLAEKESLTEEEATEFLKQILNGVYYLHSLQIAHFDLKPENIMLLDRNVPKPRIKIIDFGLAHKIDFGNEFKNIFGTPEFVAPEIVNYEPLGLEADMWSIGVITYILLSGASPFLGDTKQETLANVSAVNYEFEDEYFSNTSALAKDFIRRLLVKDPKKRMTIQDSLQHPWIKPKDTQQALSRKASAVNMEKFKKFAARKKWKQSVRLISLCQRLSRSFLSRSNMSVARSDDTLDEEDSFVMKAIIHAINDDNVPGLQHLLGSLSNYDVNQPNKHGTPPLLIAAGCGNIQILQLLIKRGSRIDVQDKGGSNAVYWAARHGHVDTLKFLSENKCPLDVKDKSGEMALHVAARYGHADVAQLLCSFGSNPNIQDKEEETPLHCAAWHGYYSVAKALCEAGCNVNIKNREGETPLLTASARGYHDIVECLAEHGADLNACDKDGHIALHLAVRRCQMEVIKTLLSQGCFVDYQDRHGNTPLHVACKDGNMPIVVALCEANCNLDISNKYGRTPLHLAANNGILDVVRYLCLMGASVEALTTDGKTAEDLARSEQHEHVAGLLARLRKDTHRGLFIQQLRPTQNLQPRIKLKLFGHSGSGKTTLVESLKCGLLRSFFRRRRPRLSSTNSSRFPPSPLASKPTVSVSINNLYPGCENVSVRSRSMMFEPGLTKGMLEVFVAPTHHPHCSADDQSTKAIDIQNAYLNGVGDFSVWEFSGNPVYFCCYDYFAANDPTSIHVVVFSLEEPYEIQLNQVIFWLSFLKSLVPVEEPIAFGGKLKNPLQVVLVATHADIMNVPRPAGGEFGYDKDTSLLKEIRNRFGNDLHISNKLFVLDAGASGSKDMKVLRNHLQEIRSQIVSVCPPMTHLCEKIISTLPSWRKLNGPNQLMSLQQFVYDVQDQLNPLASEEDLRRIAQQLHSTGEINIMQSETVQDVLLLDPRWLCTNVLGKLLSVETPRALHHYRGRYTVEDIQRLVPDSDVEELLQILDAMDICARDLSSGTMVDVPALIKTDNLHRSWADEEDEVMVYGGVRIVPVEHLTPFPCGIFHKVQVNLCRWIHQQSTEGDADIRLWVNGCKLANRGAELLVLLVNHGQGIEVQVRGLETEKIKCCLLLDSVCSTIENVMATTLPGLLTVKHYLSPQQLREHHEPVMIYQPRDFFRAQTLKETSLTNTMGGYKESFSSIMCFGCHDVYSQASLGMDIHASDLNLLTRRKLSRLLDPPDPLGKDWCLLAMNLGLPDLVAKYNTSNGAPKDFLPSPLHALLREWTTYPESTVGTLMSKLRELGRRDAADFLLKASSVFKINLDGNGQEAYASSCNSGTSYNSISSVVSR
Sequence of Casein kinase II subunit alpha' (Homo sapiens) (P19784 whole entry, looked up): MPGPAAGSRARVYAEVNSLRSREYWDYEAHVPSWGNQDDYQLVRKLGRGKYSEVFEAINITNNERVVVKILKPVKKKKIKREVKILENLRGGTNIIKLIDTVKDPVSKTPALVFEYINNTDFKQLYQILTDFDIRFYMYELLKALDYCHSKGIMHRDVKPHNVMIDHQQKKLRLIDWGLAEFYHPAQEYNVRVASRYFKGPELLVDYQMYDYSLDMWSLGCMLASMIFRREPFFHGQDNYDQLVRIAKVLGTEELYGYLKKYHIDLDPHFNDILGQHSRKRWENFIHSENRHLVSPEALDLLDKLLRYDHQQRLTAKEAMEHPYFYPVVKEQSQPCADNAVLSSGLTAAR
Sequence of Protein kinase C eta type (Homo sapiens) (P24723 whole entry): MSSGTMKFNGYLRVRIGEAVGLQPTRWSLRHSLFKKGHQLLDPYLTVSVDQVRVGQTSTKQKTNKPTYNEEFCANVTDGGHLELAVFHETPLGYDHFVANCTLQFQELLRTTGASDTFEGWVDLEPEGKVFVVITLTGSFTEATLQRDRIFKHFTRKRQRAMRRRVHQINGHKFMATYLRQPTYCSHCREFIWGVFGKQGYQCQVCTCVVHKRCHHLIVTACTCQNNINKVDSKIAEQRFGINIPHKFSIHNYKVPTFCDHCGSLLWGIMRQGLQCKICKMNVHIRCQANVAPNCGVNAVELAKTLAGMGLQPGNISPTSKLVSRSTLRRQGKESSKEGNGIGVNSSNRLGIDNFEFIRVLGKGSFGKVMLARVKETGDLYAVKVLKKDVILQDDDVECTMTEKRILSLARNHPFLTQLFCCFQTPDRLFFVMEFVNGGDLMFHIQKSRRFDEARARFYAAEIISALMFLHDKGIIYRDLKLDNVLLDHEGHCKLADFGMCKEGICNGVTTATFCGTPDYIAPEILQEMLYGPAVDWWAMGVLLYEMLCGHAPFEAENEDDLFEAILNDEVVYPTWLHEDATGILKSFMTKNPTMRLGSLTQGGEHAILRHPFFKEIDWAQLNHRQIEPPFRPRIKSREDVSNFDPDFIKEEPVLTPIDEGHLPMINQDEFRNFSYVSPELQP

Turning to `COCC(=O)NC/C=C/c1ccc2ncnc(Nc3ccc(Oc4ccc(C)nc4)c(C)c3)c2c1` [CP-724714], the % of control in [1] came to 67%; in [2] it was 76%.

`N#Cc1cccc(-c2c[nH]c3ncnc(N4CCOCC4)c23)c1`: in [3], the % of control amounted to 98%.

Molecule `O=C(NOC[C@H](O)CO)c1ccc(F)c(F)c1Nc1ccc(I)cc1F` gave a % of control in test [4] of 100%.

In [5], `Cc1cc([C@@H](C)Nc2ccccc2C(=O)O)c2nc(N3CCOCC3)cc(=O)n2c1` [AZD-6482] registered a % of control of 82%.

With `CC[C@@H]1[C@H](F)C(=O)N[C@@H]1COc1nccc2cc(C(N)=O)c(OC)cc12` [ZIMLOVISERTIB], the % of inhibition in test [6] (at 0.01 µM) was 3.3%; in test [6] (at 0.04 µM) it was 10.6%; in [6] (at 0.2 µM), 6.9%; in [6] (at 1 µM), -0.7%; in test [6] (at 5 µM), 4.9%; in [7] it was 0.984%.

For `CN(C)C/C=C/C(=O)Nc1ccc(C(=O)N2CCCC(Nc3ncc(Cl)c(-c4c[nH]c5ccccc45)n3)C2)cc1` (centres undefined), the % of control was determined as 89% in [8] and 99% in [9].

Regarding `Cc1ccc(-c2ccc3c(ccc4sc5c(c43)NC[C@@H](C)NC5=O)n2)cn1`, in [10], the % of inhibition was -15%.
